Results as given in patent publication US4464354A, “(3,4-c)-Pyrido psoralens, process of preparation, application in cosmetology and therapeutics, and cosmetological and pharmaceutical composition with them” (Institut National de la Sante et de la Recherche Medicale, priority 1982, dated 1984).
Where two headings read alike, the source gives them in different places.

Legend:
[1] = tested on: Saccharomyces cerevisiae yeast; experiment: induction of lethal effects in yeast with 365 nm irradiation (UVA); format: cell-based; settings: yeast
Experimental: This photobiological activity has in effect been defined by the induction of lethal effects, the induction of "small colony" cytoplasmic mutations (damage in the mitochondrial DNA) and the induction of nuclear mutations (reverse and forward). The experiments were conducted in the customary manner in conformity with the following references:
Thus, the dose of UVA must be between 2.5 and 5 times weaker in the case of compounds 1a and 1b than in the case of 8-MOP to attain the same survival rate.

[2] = tested on: DNA; settings: background statement; cited from earlier work
[3] = background statement, cited from earlier work
[4] = mice, after exposure to light in the near ultraviolet range around 365 nm; cited from earlier work
[5] = tested on: DNA of cells of the wild type; experiment: direct biochemical verification of cross-linking in DNA of cells treated and irradiated at 365 nm; format: cell-based, yeast; settings: 10^-5 M, 365 nm, two doses (30% and 5% survival rate)
From the text: Indeed, DNA of cells of the wild type were extracted immediately after treatment with products 1a, 1b at a concentration of 10^-5 M and irradiation with two doses of radiation at 365 nm (30% and 5% survival rate). […] If the DNA contains cross-links it renatures itself and is found in the double chain form separable by gradient density from single chain DNA.

[6] = tested on: V79 chinese hamster cells; experiment: antiproliferatory effect: inhibition of colony formation of V79 cells; format: cell-based; settings: 5×10^-6 M, UVA
Experimental: The photobiological activity of the two monofunctional componds 1a and 1b have been studied in mammalian cells in vitro in order to determine their antiproliferatory effect.
A diploid strain of V79 chinese hamster cells were used.
The action of the compounds on cell survival (i.e. the antiproliferatory effect) was determined by measuring their power to inhibit the capacity of cells to form colonies. The technique used is that described by C.

[7] = tested on: psoriatic plaque; experiment: therapeutic test comparing 8-methoxypsoralen and product 1b; format: in vivo, human; settings: 10^-2 M, one patient without further treatment
From the text: The concentrations of 8-MOP and product 1b were 10^-2 M in the same excipient as that used in the previous therapeutic test. Both preparations were applied on two rounded zones 3 cm in diameter, located on the same psoriatic plaque and were irradiated according to the same procedure of gradually increasing ultraviolet irradiation until a maximum of 10 J/cm2 per treatment.

Cc1cc2c(ccc3c(C)cc(=O)oc32)o1 [4,5'-dimethylangelicine, reference compound]
photodynamic activity (oxygen dependent) on induction of lethal damages [1]: comparable

COc1c2ccoc2cc2oc(=O)ccc12 [5-methoxypsoralen]
capability of forming cross-links in DNA [2]: capable of forming cross-links in the DNA | mutagenic activity and carcinogenesis in animals [3]: high mutagenic activity and carcinogenesis in animals | mutagenic activity and carcinogenesis in animals ([3]; listed as 5-methoxy psoralen): mutagenic | carcinogenicity [4]: carcinogenic in mice

COc1c2occc2cc2ccc(=O)oc12 [8-methoxypsoralen, reference compound]
form of DNA after renaturation (cross-links) [5]: cross-linked double strand DNA | capability of forming cross-links in DNA [2]: capable of forming cross-links in the DNA | LD10 (dose which leaves 10% survive) [6]: 3800 J/cm2 | photodynamic activity (oxygen dependent) on induction of lethal damages [1]: comparable | mutagenic activity and carcinogenesis in animals [3]: high mutagenic activity and carcinogenesis in animals | deterioration after end of treatment [7]: rapid deterioration
